In patent publication US6204282A, “Benzimidazole compounds that are vitronectin receptor antagonists” (Schering Corporation, priority 1999, dated 2001):

What follows are compounds tested against T1, αvβ3 receptor (Homo sapiens, UniProt P05106+P06756) (assay: competition radioligand binding assay, 125I-echistatin to purified αvβ3 receptor). Details: inhibition of specific binding of 125I-echistatin (0.05 nM), 3 hour incubation at room temperature.
T1 construct: αvβ3 receptor (purified from human placenta); from tissue; host or cells: human placenta

Compound	IC50 [nM]
O=C(N[C@@H](CNC(=O)c1ccc(CN(Cc2nc3ccccc3[nH]2)C(=O)c2ccc3c(c2)OCO3)cc1)C(=O)O)OCc1ccccc1 [Example 5-4]	2.9
O=C(N[C@@H](CNC(=O)c1cccc(CNCc2nc3ccccc3[nH]2)c1)C(=O)O)OCc1ccccc1 [Example 5-6]	~500
O=C(N[C@@H](CNC(=O)c1cccc(CN(Cc2nc3ccccc3[nH]2)C(=O)c2ccc3c(c2)OCO3)c1)C(=O)O)OCc1ccccc1 [Example 5-9]	~500

More lines, now with the values ahead:

IC50 [nM]	Compound
0.42	COCC(=O)N(Cc1ccc(C(=O)NC[C@H](NC(=O)OCc2ccccc2)C(=O)O)cc1)Cc1nc2ccccc2[nH]1 [Example 5-5]
5.4	O=C(N[C@@H](CNC(=O)c1ccc(CNCc2nc3ccccc3[nH]2)cc1)C(=O)O)OCc1ccccc1 [Example 5-1]
~500	COCC(=O)N(Cc1cccc(C(=O)NC[C@H](NC(=O)OCc2ccccc2)C(=O)O)c1)Cc1nc2ccccc2[nH]1 [Example 5-10]

What follows are compounds tested against αllbβ3 receptor (Homo sapiens, UniProt P05106+P08514) (assay: similar competitive assay with purified αllbβ3 receptor and 125I-echistatin (specificity index versus αvβ3)). Details: IC50 αllbβ3 / IC50 αvβ3.
Type: binding
Description: The specificity index, which is a measure of the relative binding affinity for αvβ3 versus αllbβ3, may be determined by dividing the IC50 value for αllbβ3by the IC50 value for αvβ3.

Compound	SPECIFICITY αIIb β3/αvβ3 (specificity index)
O=C(N[C@@H](CNC(=O)c1ccc(CN(Cc2nc3ccccc3[nH]2)C(=S)NCCc2ccccc2)cc1)C(=O)O)OCc1ccccc1 [Example 5-31]	80
CC(=O)N(Cc1ccc(C(=O)NC[C@H](NC(=O)OC(C)(C)C)C(=O)O)cc1)Cc1nc2ccccc2[nH]1 [Example 5-61]	324
CC(C)NC(=O)N(Cc1ccc(C(=O)NC[C@H](NC(=O)OCc2ccccc2)C(=O)O)cc1)Cc1nc2ccccc2n1C [Example 5-93]	124
CCOC(=O)c1ccc(NC(=O)N(Cc2ccc(C(=O)NC[C@H](NC(=O)OCc3ccccc3)C(=O)O)cc2)Cc2nc3ccccc3[nH]2)cc1 [Example 5-47]	1252
O=C(N[C@@H](CNC(=O)c1ccc(CN(Cc2nc3ccccc3[nH]2)C(=O)Nc2ccc(-c3ccccc3)cc2)cc1)C(=O)O)OCc1ccccc1 [Example 5-38]	49
O=C(NC(CNC(=O)c1ccc(CNCCc2nc3ccccc3[nH]2)cc1)C(=O)O)OCc1ccccc1 (centres unmarked) [Example 5-70]	0.2
CCOC(=O)[C@H](Cc1ccccc1)NC(=O)N(Cc1ccc(C(=O)NC[C@H](NC(=O)OCc2ccccc2)C(=O)O)cc1)Cc1nc2ccccc2[nH]1 [Example 5-52]	448
CC(C)(C)OC(=O)N[C@@H](CNC(=O)c1ccc(CN(Cc2nc3ccccc3[nH]2)C(=O)CCC2CCCC2)cc1)C(=O)O [Example 5-64]	499
O=C(O)CC(NC(=O)c1ccc(CN(Cc2nc3ccccc3[nH]2)C(=O)CCc2ccccc2)cc1)c1ccccc1 (centres unmarked) [Example 5-68]	0.4
CC(=O)OC(C(=O)N(Cc1ccc(C(=O)NC[C@H](NC(=O)OCc2ccccc2)C(=O)O)cc1)Cc1nc2ccccc2[nH]1)c1ccccc1 (some centres unmarked) [Example 5-18]	82
CCCCOC(=O)N[C@@H](CNC(=O)c1ccc(CN(Cc2nc3ccccc3[nH]2)C(=O)Nc2ccc(F)cc2)cc1)C(=O)O [Example 5-88]	1657
CC(NCc1ccc(C(=O)NC[C@H](NC(=O)OCc2ccccc2)C(=O)O)cc1)c1nc2ccccc2[nH]1 (some centres unmarked) [Example 5-75]	10.2
CC(NC(=O)N(Cc1ccc(C(=O)NC[C@H](NC(=O)OCc2ccccc2)C(=O)O)cc1)Cc1nc2ccccc2[nH]1)c1cccc2ccccc12 (some centres unmarked) [Example 5-36]	129
CCOC(=O)[C@H](CC(C)C)NC(=O)N(Cc1ccc(C(=O)NC[C@H](NC(=O)OCc2ccccc2)C(=O)O)cc1)Cc1nc2ccccc2[nH]1 [Example 5-53]	483
Cn1c(CN(Cc2ccc(C(=O)NC[C@H](NC(=O)OCc3ccccc3)C(=O)O)cc2)C(=O)NC2CCCCC2)nc2ccccc21 [Example 5-92]	174
CCCCOC(=O)N[C@@H](CNC(=O)c1ccc(CN(Cc2nc3ccccc3[nH]2)C(=O)NC(C)C)cc1)C(=O)O [Example 5-84]	712

Compound	SPECIFICITY αIIb β3/αvβ3 (specificity index)
O=C(N[C@@H](CNC(=O)c1ccc(CN(Cc2nc3ccccc3[nH]2)C(=O)NC2CCCCC2)cc1)C(=O)O)OCc1ccccc1 [Example 5-28]	1136
O=C(N[C@@H](CNC(=O)c1ccc(CN(Cc2nc3ccccc3[nH]2)C(=O)NS(=O)(=O)c2ccc(Cl)cc2)cc1)C(=O)O)OCc1ccccc1 [Example 5-44]	66.3
CCCCOC(=O)N[C@@H](CNC(=O)c1ccc(CN(Cc2nc3ccccc3[nH]2)C(=O)N[C@@H](CCSC)C(=O)OCC)cc1)C(=O)O [Example 5-87]	1569
CCCCOC(=O)N[C@@H](CNC(=O)c1ccc(CN(Cc2nc3ccccc3[nH]2)C(=O)NC2CCCCC2)cc1)C(=O)O [Example 5-82]	1259
O=C(N[C@@H](CNC(=O)c1ccc(CN(Cc2nc3ccccc3[nH]2)C(=S)NC2CCCCC2)cc1)C(=O)O)OCc1ccccc1 [Example 5-55]	620
O=C(N[C@@H](CNC(=O)c1ccc(CN(Cc2nc3ccccc3[nH]2)C(=O)NCc2ccccc2)cc1)C(=O)O)OCc1ccccc1 [Example 5-29]	144
COCC(=O)N(Cc1ccc(C(=O)NC[C@H](NC(=O)OCc2ccccc2)C(=O)O)cc1)C(C)c1nc2ccccc2[nH]1 (some centres unmarked) [Example 5-77]	12.4
O=C(N[C@@H](CNC(=O)c1ccc(CN(Cc2nc3ccccc3[nH]2)C(=O)Nc2ccc(Cl)cc2)cc1)C(=O)O)OCc1ccccc1 [Example 5-35]	240
O=C(NC(CNC(=O)c1ccc(CN(CCc2nc3ccccc3[nH]2)C(=O)CCC2CCCC2)cc1)C(=O)O)OCc1ccccc1 (centres unmarked) [Example 5-74]	0.6
CC(C)(C)OC(=O)N[C@@H](CNC(=O)c1ccc(CNCc2nc3ccccc3[nH]2)cc1)C(=O)O [Example 5-60]	90
O=C(N[C@@H](CNC(=O)c1ccc(CN(Cc2nc3ccccc3[nH]2)C(=O)Nc2ccc(F)cc2)cc1)C(=O)O)OCc1ccccc1 [Example 5-49]	504
CC(c1nc2ccccc2[nH]1)N(Cc1ccc(C(=O)NC[C@H](NC(=O)OCc2ccccc2)C(=O)O)cc1)C(=O)CCC1CCCC1 (some centres unmarked) [Example 5-79]	19.0
CCCCOC(=O)N[C@@H](CNC(=O)c1ccc(CN(Cc2nc3ccccc3[nH]2)C(=O)NCC(=O)OCC)cc1)C(=O)O [Example 5-86, N^3-[4-[(benzimnidazol-2-yl)methyl][[(ethoxycarbonylmethyl)amino]-carbonyl]aminomethylbenzoyl]-N^2-(n-butoxycarbonyl)-L-2,3-diaminopropionic acid]	793
O=C(N[C@@H](CNC(=O)c1ccc(CN(Cc2nc3ccccc3[nH]2)C(=O)Nc2ccccc2)cc1)C(=O)O)OCc1ccccc1 [Example 5-27]	481
COc1ccc(OC(=O)N(Cc2ccc(C(=O)NC[C@H](NC(=O)OCc3ccccc3)C(=O)O)cc2)Cc2nc3ccccc3[nH]2)cc1 [Example 5-21]	41

The remaining lines, values ahead:

SPECIFICITY αIIb β3/αvβ3 (specificity index)	Compound
1210	CCOC(=O)[C@@H](NC(=O)N(Cc1ccc(C(=O)NC[C@H](NC(=O)OCc2ccccc2)C(=O)O)cc1)Cc1nc2ccccc2[nH]1)C(C)C [Example 5-51]
95	O=C(N[C@@H](CNC(=O)c1ccc(CN(Cc2nc3ccccc3[nH]2)C(=O)C2CCCCC2)cc1)C(=O)O)OCc1ccccc1 [Example 5-15]
34	O=C(N[C@@H](CNC(=O)c1ccc(CN(Cc2nc3ccccc3[nH]2)C(=O)COc2ccccc2)cc1)C(=O)O)OCc1ccccc1 [Example 5-19]
22	CSCC(=O)N(Cc1ccc(C(=O)NC[C@H](NC(=O)OCc2ccccc2)C(=O)O)cc1)Cc1nc2ccccc2[nH]1 [Example 5-23]
293	CC(C)(C)OC(=O)N[C@@H](CNC(=O)c1ccc(CN(Cc2nc3ccccc3[nH]2)C(=O)CCc2ccccc2)cc1)C(=O)O [Example 5-63]
528	O=C(O)CNC(=O)N(Cc1ccc(C(=O)NC[C@H](NC(=O)OCc2ccccc2)C(=O)O)cc1)Cc1nc2ccccc2[nH]1 [Example 5-96, N^3-[4-[(Benzimidazol-2-yl)methyl][[(carboxymethyl)amino]carbonyl]aminomethylbenzoyl]-N^2 -Cbz-L-2,3-diaminopropionic acid]
128	CN(Cc1ccc(C(=O)NC[C@H](NC(=O)OCc2ccccc2)C(=O)O)cc1)Cc1nc2ccccc2[nH]1 [Example 5-33]
46	COCC(=O)N(Cc1ccc(C(=O)NC[C@@H](NC(=O)OCc2ccccc2)C(=O)O)cc1)Cc1nc2ccccc2[nH]1 [Example 5-58]
1333	CCOC(=O)CNC(=O)N(Cc1ccc(C(=O)NC[C@H](NC(=O)OCc2ccccc2)C(=O)O)cc1)Cc1nc2ccccc2[nH]1 [Example 5-45, N^3-[4-[(benzimidazol-2-yl)methyl][[(ethoxycarbonylmethyl)amino]-carbonyl]aminomethylbenzoyl]-N^2 -Cbz-L-2,3-diaminopropionic acid]
0.3	CC(=O)N(CCc1nc2ccccc2[nH]1)Cc1ccc(C(=O)NCC(NC(=O)OCc2ccccc2)C(=O)O)cc1 (centres unmarked) [Example 5-71]
585	CCNC(=O)N(Cc1ccc(C(=O)NC[C@H](NC(=O)OCc2ccccc2)C(=O)O)cc1)Cc1nc2ccccc2[nH]1 [Example 5-43]
39	O=C(N[C@@H](CNC(=O)c1ccc(CN(Cc2nc3ccccc3[nH]2)C(=O)N2CCOCC2)cc1)C(=O)O)OCc1ccccc1 [Example 5-42]
76	CCOC(=O)CCC(=O)N(Cc1ccc(C(=O)NC[C@H](NC(=O)OCc2ccccc2)C(=O)O)cc1)Cc1nc2ccccc2[nH]1 [Example 5-17]
